Laboratory results as given in PMC5109907, “Enhancing succinic acid biosynthesis in Escherichia coli by engineering its global transcription factor, catabolite repressor/activator (Cra)” (Scientific Reports, 2016).

What was measured:
[1] = molecular target: T1, Cra (catabolite repressor/activator) (Escherichia coli, UniProt P0ACP1, R57K/A58G/G59Q/R60Q/S75H/D148I/R149I, form not given); experiment: isothermal titration calorimetry, one-site fit; format: binding; conditions: 25 °C; 15 μM protein, 50 mM FBP injected; Tang1541 mutant
T1 construct: full-length, His6-tagged (tag encoded by the 3' primer, C-terminal), pET28a, expressed in E. coli BL21, Ni resin

[2] = molecular target: T2, Cra (catabolite repressor/activator) (Escherichia coli, UniProt P0ACP1, R57K/A58T/G59N/R60Q/S75H/D148I/R149I, form not given); experiment: isothermal titration calorimetry, one-site fit; format: binding; conditions: 25 °C; 15 μM protein, 50 mM FBP injected; Tang1544 mutant
T2 construct: full-length, His6-tagged (tag encoded by the 3' primer, C-terminal), pET28a, expressed in E. coli BL21, Ni resin

[3] = molecular target: T3, Cra (catabolite repressor/activator) (Escherichia coli, UniProt P0ACP1); experiment: isothermal titration calorimetry, one-site fit; format: binding; conditions: 25 °C; 15 μM protein, 50 mM FBP injected
T3 construct: full-length, His6-tagged (tag encoded by the 3' primer, C-terminal), pET28a, expressed in E. coli BL21, Ni resin

[4] = molecular target: Cra wild type (Escherichia coli, UniProt P0ACP1 1-334); experiment: EMSA; no FBP; EMSA: 50 nM oligonucleotide mixture annealed in TE buffer, with or without 1 mM FBP, 15 min at 30 C, nondenaturing 10% polyacrylamide gel, ethidium bromide; binding salt and pH not stated; conditions: protein: recombinant; tags: His6; chain copies: 4; label: none (ethidium bromide stain); blunt
[5] = molecular target: Cra mutant (Tang1544) (Escherichia coli, UniProt P0ACP1 1-334, R57K;A58T;G59N;R60Q;S75H;D148I;R149I); experiment: EMSA; no FBP; less free DNA than Tang1534; EMSA: 50 nM oligonucleotide mixture annealed in TE buffer, with or without 1 mM FBP, 15 min at 30 C, nondenaturing 10% polyacrylamide gel, ethidium bromide; binding salt and pH not stated; conditions: protein: recombinant; tags: His6; chain copies: 2; label: none (ethidium bromide stain); blunt

Row | Kd [1] [nM] | Kd [2] [nM] | Kd [3] [nM] | Molecule | binding result [4] | binding result [5]
1 | 130 ± 37 | 95 ± 24 | 1400 | O=P(O)(O)OC[C@H]1OC(O)(COP(=O)(O)O)[C@@H](O)[C@@H]1O (some centres unmarked) [FBP, fructose-1,6-bisphosphate] |  | 
2 |  |  |  | aceBAK 18-bp Cra site (dsDNA) DNA 1: TCGTTAAGCGATTCAGCA DNA 2: TGCTGAATCGCTTAACGA | binds | binds
